According to patent US9289443B2, “Pharmaceutical composition and method for preventing or treating hepatitis C” (INDUSTRIAL TECHNOLOGY RESEARCH INSTITUTE, priority 2010, dated 2016):
Where two headings read alike, the source gives them in different places.

Columns and labels:
[1] = test system: HCV replicon system (Huh-luc/neo-ET cell carrying I389luc-ubi-NS3-3'/ET); test: Inhibition of the HCV replication by determining the firefly luciferase activity (HCV replicon system); format: cell-based, Hepatitis C virus; conditions: for EW (CC50/IC50): ratio of CC50/IC50
Text: HCV replicon system was used to test the effects of compounds on the treatment and prevention of hepatitis C. The HCV replicon system has been acknowledged as a screening tool for new drugs (Lohmann, V. et al., 1999, Replication of subgenomic hepatitis C virus RNAs in hepatoma cell line, Science. Vol. 285, 110-113; Bartenschlager, R. 2002, Hepatitis C virus replicons: potential role for drug development, Nature Reviews/Drug Discovery. Vol. 1, 911-916; Vorlijk, J. M. et al., 2003, A replicon-based bioassay for the measurement of interferons in patients with chronic hepatitis C, Journal of Virological Methods. 110:201-209). The HCV replicon system includes a Huh-luc/neo-ET cell carrying I389luc-ubi-NS3-3′/ET gene construct which monitors the replicative capability of the HCV. In the HCV replicon system, a firefly luciferase-ubiquitin-neomycin fusion protein is expressed by the translation of the internal ribosomal entry site (IRES) of the HCV, and the hepatitis C viral nonstructural proteins (NS3-5B), which includes protease, helicase and polymerase, are expressed by the translation of the IRES of the encephalomyocarditis virus (EMCV).
The IRES of the hepatitis C virus or the hepatitis C viral nonstructural proteins consist of a replication complex. When the replication complex is affected by the candidate compound, the activity of the HCV replicon system is inhibited and the activity of the luciferase is reduced. Accordingly, the inhibition of the HCV can be estimated by determining the activity of the intensity of the luciferase expressed by the Huh-luc/noe-ET cell.
Inhibition of the HCV Replication by Determining the Firefly Luciferase Activity
(§1) Huh-luc/neo-ET cells with a concentration of 2.5×10^4 cells/100 μl/well were seeded into a 96 well culture plate (Corning Incorporation COSTAR, 3599) and placed into a cell incubator for culturing.
The oleanolic acid derivatives as listed in Table 2 were co-cultured with Huh-luc/neo-ET cells for 2 days. The mediums were washed twice by 100 μl of 1×PBS (1 mM KH2PO4, 10 mM Na2HPO4, 137 mM NaCl, 2.7 mM KCl) and PBS was removed. 35 μl of 1× passive lysis buffer (Promega, E1941) was added to the cells and vortexed for 10 minutes to thoroughly lysis the cells.
30 μl/well of the cell suspension was then added to a 96 well white plate (NUNC, 236108) for the measurement of the luciferase activity. Subsequently, 40 μl/well of luminescence analysis buffer and 20 μl/well of luminescence substrate (1 mM D-Luciferin) were added into the 96 well white plates. The luciferase activity (Rlu/s) was measured by a microplate luminescence meter (Berthold, MPL4) immediately.
The luciferase activity of the control was set as a standard to calculate the inhibition rates (%) of HCV of the experiment groups. The inhibition rates was calculated by the following formula: […]
After the test compounds were serial diluted and the inhibition rates of the HCV replication were determined at different concentrations, the concentration at 50% inhibition of the HCV replication (IC50) was calculated by grafit5 software (Erithacus Software).
For each experiment, 0.5 ng/ml and 0.1 ng/ml of the PEG IFN alpha-2a were used as positive controls for the IC50 test. Meanwhile, 1 μg/ml of cyclosporine A (CsA) was also used as a positive control for the IC50 test.

[2] = Cell cytotoxic test (MTT) on Huh-luc/neo-ET cells; format: cell-based; conditions: human, concentration for 50% cell kill, two-day culture
Description: (§2) Cell Cytotoxic Test on Huh-luc/noe-ET Cells
as §1
(§3) The next day, the oleanolic acid derivatives as listed in the following Tables 1 and 2 were diluted with a DMEM culture medium to the concentrations of 28.73 μg/ml, 9.57 μg/ml, 3.19 μg/ml, 1.06 μg/ml, 0.35 μg/ml, 0.11 μg/ml, 0.039 μg/ml and 0.013 μg/ml, respectively, or diluted to the concentrations of 114.92 μg/ml, 38.33 μg/ml, 12.77 μg/ml, 4.25 μg/ml, 1.42 μg/ml, 0.46 μg/ml, 0.16 μg/ml and 0.057 μg/ml, respectively. The initial medium in the 96 well culture plate was sucked out by a vacuum pump (DOAT-704AA) without removing the cells. Then, the culture medium containing the oleanolic acid derivatives were added into the 96 well culture plate containing 100 μl/well of the cells as the experiment groups, while the untreated culture mediums were added to the cells as a control.
(§4) After a two-day culture, the medium was removed and each well containing cells was washed by 100 μl of 1×PBS (1 mM KH2PO4, 10 mM Na2HPO4, 137 mM NaCl, 2.7 mM KCl) twice. Precipitates were recorded and PBS was removed. 50 μl of the medium containing 0.5 mg/ml of MTT (Sigma, M2128) was added into each well of the 96 well culture plate. The 96 well culture plate was placed in a CO2 culture incubator for 1 hour. Subsequently, 150 μl of DMSO (Riedel-de Haül, 60153) was added to each well of the 96 well culture plate and vortexed (KS shaker Type 670) to thoroughly mix the resulting purple precipitates. The 96 well culture plate was then placed in a continuous wave length microwell plate analysis system (Molecular Devices, SPECTRAMAX 190) to measure the absorbance of cells at a wavelength of 560 nm.
(§5) The average absorbance of the control was set as 100% of the cell survival rates (%) to calculate the cell survival rates (%) of the experiment groups with different concentrations of the oleanolic acid derivatives.
(§6) The cell survival rate was calculated by the following formula: Absorbance of the experiment group/Absorbance of the control×100%
(§7) The data of the cell survival rates for all experiment groups were plotted on an x-y graph to see the distribution. A trend line was obtained. […]

[3] = test system: Huh-luc/neo-ET cells; test: Cell cytotoxic test (MTT) on Huh-luc/neo-ET cells; format: cell-based; conditions: two-day culture; for CC15: concentration for 15% cell kill; for CC50: concentration for 50% cell kill
Description: as §2, §1, §3, §4, §5, §6, §7

[4] = Hepatitis C virus, Huh-luc/neo-ET, 48 h, compound concentration 10 μM, 2 days co-culture, luciferase activity, read-out: Inhibition rate (%)
[5] = compound concentration 10 μM, 2 days co-culture, luciferase activity
[6] = Hepatitis C virus, Huh-luc/neo-ET
[7] = Hepatitis C virus, Huh-luc/neo-ET, 48 h, read-out: Inhibition rate (%)
[8] = Hepatitis C virus, concentration for 50% inhibition of the HCV replication, Huh-luc/neo-ET replicon cells, read-out: IC50

Row | SMILES | inhibition at 10 µM [1, 4] [%] | CC50 at 2 days [2] [µM] | CC15 [3] [µM] | EW (CC50/IC50) [1] | other results
1 | CC(=O)OC1C(OC(C)=O)[C@]2(CO)C(OC(C)=O)C[C@]3(C)C(=CCC4[C@@]5(C)CC[C@H](OC6OC(C(C)=O)C(O)C(OC7OC(CO)C(O)C(O)C7O)C6O)C(C)(C)C5CC[C@]43C)C2CC1(C)C (some centres unmarked) [A07] | 10.3 ± 11.7 | > 100 | >100 | – | –
2 | C[C@@H]1O[C@@H](O[C@@H]2[C@H](O)[C@@H](O)[C@H](O[C@H]3CC[C@@]4(C)C(CC[C@]5(C)C4C=C[C@]46OC[C@@]7(CCC(C)(C)CC74)[C@@H](O)C[C@]65C)C3(C)C)O[C@@H]2CO[C@@H]2O[C@H](CO)[C@@H](O)[C@H](O)[C@H]2O)[C@H](O)[C@H](O)[C@H]1O (some centres unmarked) [A04, Saikosaponin C] | – | – | >100 | – | Inhibition rate (%) [1, 5]: 3.1 ± 12.9%; CC50 [3]: > 100 µM
3 | C/C=C(/C)C(=O)OC1CC(C)(C)CC2C3=CCC4C5(C)CCC(OC6OC(C)C(OC7OC(C(=O)O)C(O)C(OC8OC(CO)C(O)C(O)C8OC8OC(CO)C(O)C(O)C8O)C7O)C(O)C6O)C(C)(C)C5CCC4(C)C3(C)C(OC(=O)/C=C/C=C/C=C/CCC)C(O)C12CO (centres unmarked) [A14] | – | > 100 | 5.9 | 51.28 | IC50 [1, 6]: 1950 ± 120 nM; inhibition at 5 µM [1, 7]: 89.3 ± 0.8%
4 | C=CC(C)(O)CCCC(C)C(=O)OC1C(C)OC(OC(C)(C=C)CC/C=C(\CO)C(=O)OC2CC3(C(=O)OC4OCC(OC5OC(CO)C(O)C(OC6OC(CO)C(OC7OC(C)C(O)C(O)C7O)C(O)C6O)C5O)C(O)C4O)CCC4(C)C(=CCC5C6(C)CCC(OC7OC(CO)C(OC8OC(CO)C(O)C(OC9OCC(O)C(O)C9O)C8O)C(O)C7O)C(C)(C)C6CCC54C)C3CC2(C)C)C(O)C1O (centres unmarked) [A23] | – | 38.1 | 7.96 | 156.73 | IC50 [1, 6]: 230 ± 20 nM; inhibition at 5 µM [1, 7]: 93.5 ± 0.4%
5 | C=CC(C)(O)CC/C=C(\C)C(=O)OCC1OC(OC(=O)C23CCC4(C)C(=CCC5C6(C)CCC(OC7OC(COC8OC(CO)C(O)C(O)C8O)C(OC8OCC(O)C(O)C8OC8OCC(O)C(O)C8O)C(O)C7NC(C)=O)C(C)(C)C6CCC54C)C2CC(C)(C)C(O)C3O)C(OC2OCC(OC3OCC(O)(CO)C3O)C(O)C2O)C(O)C1OC1OC(CO)C(OC(C)=O)C(O)C1O (centres unmarked) [A17] | – | 18.1 | 1.49 | 317.89 | inhibition at 1 µM ([1]; Hepatitis C virus, Huh-luc/neo-ET, 48 h, compound concentration 1 μM, 2 days co-culture, luciferase activity, read-out: Inhibition rate (%)): 94.9 ± 1.2%; IC50 [1, 8]: 57 ± 3 nM
6 | C=CC(C)(O)CC/C=C(\C)C(=O)OCC1OC(OC(=O)C23CCC4(C)C(=CCC5C6(C)CCC(OC7OC(COC8OC(CO)C(O)C(O)C8O)C(OC8OCC(O)C(O)C8OC8OCC(O)C(O)C8O)C(O)C7NC(C)=O)C(C)(C)C6CCC54C)C2CC(C)(C)C(O)C3O)C(OC2OCC(OC3OCC(O)(CO)C3O)C(O)C2O)C(O)C1OC1OC(CO)C(O)C(O)C1O (centres unmarked) [A16] | 95.3 ± 0.3 | 45.3 | 12.09 | 107.9 | IC50 [1, 8]: 420 ± 210 nM
7 | CC1(C)CC[C@]2(C(=O)O)CC[C@]3(C)C(=CCC4[C@@]5(C)C[C@@H](O)[C@H](OC(=O)/C=C/c6ccc(O)cc6)C(C)(C)C5CC[C@]43C)C2C1 (some centres unmarked) [A09] | 13.6 ± 0.5 | 26.1 | 3.1 | – | –
8 | CC1(C)CC[C@]2(C(=O)O)CCC3=C([C@@H](CCl)C[C@@H]4[C@@]5(C)C[C@H](O)[C@H](O)[C@@](C)(C(=O)O)[C@@H]5CC[C@@]34C)[C@@H]2C1 [A01] | 41.5 ± 26.7 | > 100 | >100 | – | –
9 | C[C@H]1O[C@@H](O[C@H]2CC[C@@]3(C)[C@@H](CC[C@]4(C)[C@@H]3C=C[C@]35OC[C@@]6(CCC(C)(C)C[C@H]63)[C@@H](O)C[C@]54C)[C@]2(C)CO)[C@H](O)[C@@H](O[C@@H]2O[C@H](CO)[C@@H](O)[C@H](O)[C@H]2O)[C@H]1O [A03, Saikosaponin A] | – | – | 12.7 | – | Inhibition rate (%) [1, 5]: 13.3 ± 8%; CC50 [3]: 23.1 µM
10 | COc1ccc(/C=C/C(=O)OC2C(C)OC(OC(=O)C34CCC(C)(C)CC3C3=CCC5[C@@]6(C)CC[C@H](OC7OC(C(=O)O)C(O)C(O)C7OC7OC(CO)C(O)C(O)C7O)[C@@](C)(C=O)C6CC[C@@]5(C)[C@]3(C)C[C@H]4O)C(OC3OC(C)C(O)C(O)C3OC3OCC(O)C(O)C3O)C2O)cc1 (some centres unmarked) [A12] | – | > 100 | >100 | 1250 | IC50 [1, 6]: 80 ± 3 nM; inhibition at 10 µM [1, 7]: 95.8 ± 1%
11 | CC1(C)CC[C@]2(C(=O)O)CC[C@]3(C)C(=CCC4[C@@]5(C)C[C@@H](O)[C@H](O)[C@@](C)(COC(=O)/C=C/c6ccc(O)cc6)C5CC[C@]43C)C2C1 (some centres unmarked) [A08] | 0.4 ± 22 | 72 | 9.6 | – | –
12 | CC(=O)OC1C(OC(=O)C(C)C)C2(CO)C(CC1(C)C)C1=CCC3C4(C)CCC(OC5OC(C)C(OC6OC(C(=O)O)C(O)C(OC7OC(CO)C(O)C(O)C7OC7OC(CO)C(O)C(O)C7O)C6O)C(O)C5O)C(C)(C)C4CCC3(C)C1(C)C(O)C2O (centres unmarked) [A13] | – | 100 | 16.1 | 30.21 | inhibition at 15 µM ([1]; Hepatitis C virus, Huh-luc/neo-ET, 48 h, compound concentration 15 μM, 2 days co-culture, luciferase activity, read-out: Inhibition rate (%)): 93 ± 0.4%; IC50 [1, 8]: 3310 ± 290 nM
13 | C=CC(C)(O)CC/C=C(\C)C(=O)OC1C(O)C(CO)OC(OC(=O)C23CCC(C)(C)CC2C2=CCC4C5(C)CCC(OC6OC(COC7OCC(O)C(O)C7OC7OCC(O)C(O)C7O)C(O)C(O)C6O)C(C)(C)C5CCC4(C)C2(C)CC3O)C1OC1OC(CO)C(OC2OCC(O)C(OC3OCC(O)C(O)C3O)C2O)C(O)C1O (centres unmarked) [A26] | 95.6 ± 1.2 | 38.4 | 7.94 | 85.24 | IC50 [1, 8]: 450 ± 40 nM
14 | C[C@H]1O[C@@H](O[C@H]2CC[C@@]3(C)[C@@H](CC[C@]4(C)[C@@H]3C=C[C@]35OC[C@@]6(CCC(C)(C)C[C@H]63)[C@H](O)C[C@]54C)[C@]2(C)CO)[C@H](O)[C@@H](O[C@@H]2O[C@H](CO)[C@@H](O)[C@H](O)[C@H]2O)[C@H]1O [A05, Saikosaponin D] | – | – | 16.1 | – | Inhibition rate (%) [1, 5]: 50 ± 11.6%; CC50 [3]: 23.2 µM
